Measured values published in PMC7377239, “Cardiovascular Effects of Polychlorinated Biphenyls and Their Major Metabolites” (Environmental Health Perspectives, 2020).
Where two headings read alike, the source gives them in different places.

Tested on: iCell cardiomyocytes (human iPSC-derived cardiomyocytes)
Test: High-content imaging of cytotoxicity and mitochondrial integrity in iPSC-CMs
Format: cell-based
Details: Homo sapiens; for viability at 0.01 µM / activity at 0.01 µM / viability at 0.1 µM / activity at 0.1 µM / viability at 1 µM / activity at 1 µM / viability at 10 µM / activity at 10 µM / viability at 100 µM / activity at 100 µM: Cardiomyocyte, 0.00 µM = 100.00; for viability at 0.1 µM / activity at 0.1 µM: 0.10 µM; for minimal effective concentration: iPSC-CM
Summary of the method: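 Human iPSC-derived cardiomyocytes were seeded on gelatin-coated 384-well plates at 5,000 cells per well and maintained for 12 d. Test chemicals were added as 10μL of 5× solutions to final concentrations of 0.01 to 100μM. Cells were stained with Hoechst 33342 and MitoTracker™ Orange, fixed in formaldehyde, and imaged by confocal high-content microscopy at 10× magnification.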

[1] = 1.5 h, read-out: cm.cam.90min POD
[2] = 1.5 h, read-out: cm.mii.90min POD
[3] = 1.5 h, read-out: cm.mito.90min POD
[4] = 1.5 h, read-out: cm.tc.90min POD
[5] = 24 h, read-out: cm.cam.24hrs POD
[6] = 24 h, read-out: cm.mii.24hrs POD
[7] = 24 h, read-out: cm.mito.24hrs POD
[8] = 24 h, read-out: cm.tc.24hrs POD

For `Clc1ccc(-c2ccccc2)cc1` [PCB3], the viability at 0.01 µM (1.5 h, read-out: cm.cam.90min) was 104%, the activity at 0.01 µM (1.5 h, read-out: cm.mii.90min) was 107% and the activity at 0.01 µM (1.5 h, read-out: cm.mito.90min) was 104%. For the same compound, the viability at 0.01 µM (1.5 h, read-out: cm.tc.90min) was 104%, the viability at 0.1 µM (1.5 h, read-out: cm.cam.90min) was 97.8% and the activity at 0.1 µM (1.5 h, read-out: cm.mii.90min) was 103%. For the same compound, the activity at 0.1 µM (1.5 h, read-out: cm.mito.90min) was 97.7%, the viability at 0.1 µM (1.5 h, read-out: cm.tc.90min) was 97.7% and the viability at 1 µM (1.5 h, read-out: cm.cam.90min) was 98.5%. It also gave an activity at 1 µM (1.5 h, read-out: cm.mii.90min) of 104%, an activity at 1 µM (1.5 h, read-out: cm.mito.90min) of 98.3% and a viability at 1 µM (1.5 h, read-out: cm.tc.90min) of 98.2%. The viability at 10 µM (1.5 h, read-out: cm.cam.90min) was 99.9%, the activity at 10 µM (1.5 h, read-out: cm.mii.90min) was 109% and the activity at 10 µM (1.5 h, read-out: cm.mito.90min) was 99.6%. It also gave a viability at 10 µM (1.5 h, read-out: cm.tc.90min) of 99.5%, a viability at 100 µM (1.5 h, read-out: cm.cam.90min) of 40.3% and an activity at 100 µM (1.5 h, read-out: cm.mii.90min) of 141%. The activity at 100 µM (1.5 h, read-out: cm.mito.90min) was 39.3%, the viability at 100 µM (1.5 h, read-out: cm.tc.90min) was 40.4% and the viability at 0.01 µM (24 h, read-out: cm.cam.24hrs) was 87.6%. For the same compound, the activity at 0.01 µM (24 h, read-out: cm.mii.24hrs) was 109%, the activity at 0.01 µM (24 h, read-out: cm.mito.24hrs) was 84.7% and the viability at 0.01 µM (24 h, read-out: cm.tc.24hrs) was 87.2%. It also gave a viability at 0.1 µM (24 h, read-out: cm.cam.24hrs) of 96%, an activity at 0.1 µM (24 h, read-out: cm.mii.24hrs) of 101% and an activity at 0.1 µM (24 h, read-out: cm.mito.24hrs) of 93.1%. The viability at 0.1 µM (24 h, read-out: cm.tc.24hrs) was 95.9%, the viability at 1 µM (24 h, read-out: cm.cam.24hrs) was 95.4% and the activity at 1 µM (24 h, read-out: cm.mii.24hrs) was 97.1%. The activity at 1 µM (24 h, read-out: cm.mito.24hrs) was 91%, the viability at 1 µM (24 h, read-out: cm.tc.24hrs) was 95.3% and the viability at 10 µM (24 h, read-out: cm.cam.24hrs) was 91.4%. The activity at 10 µM (24 h, read-out: cm.mii.24hrs) was 87.2%, the activity at 10 µM (24 h, read-out: cm.mito.24hrs) was 87.8% and the viability at 10 µM (24 h, read-out: cm.tc.24hrs) was 90.8%. For the same compound, the viability at 100 µM (24 h, read-out: cm.cam.24hrs) was 1.51%, the activity at 100 µM (24 h, read-out: cm.mii.24hrs) was 32% and the activity at 100 µM (24 h, read-out: cm.mito.24hrs) was 0.72%. The viability at 100 µM (24 h, read-out: cm.tc.24hrs) was 1.49%, the minimal effective concentration [1] was 24.9 µM and the minimal effective concentration [2] was 6.86 µM. For the same compound, the minimal effective concentration [3] was 21.2 µM, the minimal effective concentration [4] was 20 µM and the minimal effective concentration [5] was 7.4 µM. It also gave a minimal effective concentration [6] of 10.9 µM, a minimal effective concentration [7] of 6.67 µM and a minimal effective concentration [8] of 6.97 µM.
In the case of `Clc1cccc(-c2cccc(Cl)c2)c1` [PCB11], the viability at 0.01 µM (1.5 h, read-out: cm.cam.90min) is reported as 99%, the activity at 0.01 µM (1.5 h, read-out: cm.mii.90min) is reported as 116% and the activity at 0.01 µM (1.5 h, read-out: cm.mito.90min) is reported as 99.1%. For the same compound, the viability at 0.01 µM (1.5 h, read-out: cm.tc.90min) was 99%, the viability at 0.1 µM (1.5 h, read-out: cm.cam.90min) was 97.7% and the activity at 0.1 µM (1.5 h, read-out: cm.mii.90min) was 102%. It also gave an activity at 0.1 µM (1.5 h, read-out: cm.mito.90min) of 97.7%, a viability at 0.1 µM (1.5 h, read-out: cm.tc.90min) of 97.7% and a viability at 1 µM (1.5 h, read-out: cm.cam.90min) of 101%. For the same compound, the activity at 1 µM (1.5 h, read-out: cm.mii.90min) was 98.3%, the activity at 1 µM (1.5 h, read-out: cm.mito.90min) was 101% and the viability at 1 µM (1.5 h, read-out: cm.tc.90min) was 101%. For the same compound, the viability at 10 µM (1.5 h, read-out: cm.cam.90min) was 99.5%, the activity at 10 µM (1.5 h, read-out: cm.mii.90min) was 105% and the activity at 10 µM (1.5 h, read-out: cm.mito.90min) was 99.5%. The viability at 10 µM (1.5 h, read-out: cm.tc.90min) was 99.3%, the viability at 100 µM (1.5 h, read-out: cm.cam.90min) was 1.03% and the activity at 100 µM (1.5 h, read-out: cm.mii.90min) was 152%. It also gave an activity at 100 µM (1.5 h, read-out: cm.mito.90min) of 0.83%, a viability at 100 µM (1.5 h, read-out: cm.tc.90min) of 1.06% and a viability at 0.01 µM (24 h, read-out: cm.cam.24hrs) of 103%. It also gave an activity at 0.01 µM (24 h, read-out: cm.mii.24hrs) of 93.5%, an activity at 0.01 µM (24 h, read-out: cm.mito.24hrs) of 102% and a viability at 0.01 µM (24 h, read-out: cm.tc.24hrs) of 102%. It also gave a viability at 0.1 µM (24 h, read-out: cm.cam.24hrs) of 99.5%, an activity at 0.1 µM (24 h, read-out: cm.mii.24hrs) of 93% and an activity at 0.1 µM (24 h, read-out: cm.mito.24hrs) of 98.7%. For the same compound, the viability at 0.1 µM (24 h, read-out: cm.tc.24hrs) was 99.3%, the viability at 1 µM (24 h, read-out: cm.cam.24hrs) was 101% and the activity at 1 µM (24 h, read-out: cm.mii.24hrs) was 93.7%. It also gave an activity at 1 µM (24 h, read-out: cm.mito.24hrs) of 98.5%, a viability at 1 µM (24 h, read-out: cm.tc.24hrs) of 101% and a viability at 10 µM (24 h, read-out: cm.cam.24hrs) of 103%. It also gave an activity at 10 µM (24 h, read-out: cm.mii.24hrs) of 85.7%, an activity at 10 µM (24 h, read-out: cm.mito.24hrs) of 102% and a viability at 10 µM (24 h, read-out: cm.tc.24hrs) of 103%. The viability at 100 µM (24 h, read-out: cm.cam.24hrs) was 0.64%, the activity at 100 µM (24 h, read-out: cm.mii.24hrs) was 31.3% and the activity at 100 µM (24 h, read-out: cm.mito.24hrs) was 0.24%. It also gave a viability at 100 µM (24 h, read-out: cm.tc.24hrs) of 0.62%, a minimal effective concentration [1] of 18.6 µM and a minimal effective concentration [2] of 12.4 µM. For the same compound, the minimal effective concentration [3] was 14.2 µM, the minimal effective concentration [4] was 16.7 µM and the minimal effective concentration [5] was 35.2 µM. It also gave a minimal effective concentration [6] of 9.6 µM, a minimal effective concentration [7] of 33.1 µM and a minimal effective concentration [8] of 35.1 µM.
